Source: ChEMBL document CHEMBL1201862, “PubChem BioAssay data set” (2004)
The source made the active and inactive calls.

How the values were obtained:
[1] = system: Vero; experiment: viability of Vero cells under compound – cytotoxicity control for flavivirus capping enzyme inhibitors (AID 588742); type: functional; settings: Chlorocebus sabaeus
[2] = target: Dual specificity tyrosine-phosphorylation-regulated kinase 1A (Rattus norvegicus, UniProt Q63470); type: biochemical, Homo sapiens
[3] = target: T1, Hexokinase HKDC1 (Homo sapiens, UniProt Q2TB90); experiment: inhibition of HKDC1 glucose phosphorylation – biochemical, W721R variant, dose response (AID 504729); type: functional
T1 sequence (Q2TB90 whole entry): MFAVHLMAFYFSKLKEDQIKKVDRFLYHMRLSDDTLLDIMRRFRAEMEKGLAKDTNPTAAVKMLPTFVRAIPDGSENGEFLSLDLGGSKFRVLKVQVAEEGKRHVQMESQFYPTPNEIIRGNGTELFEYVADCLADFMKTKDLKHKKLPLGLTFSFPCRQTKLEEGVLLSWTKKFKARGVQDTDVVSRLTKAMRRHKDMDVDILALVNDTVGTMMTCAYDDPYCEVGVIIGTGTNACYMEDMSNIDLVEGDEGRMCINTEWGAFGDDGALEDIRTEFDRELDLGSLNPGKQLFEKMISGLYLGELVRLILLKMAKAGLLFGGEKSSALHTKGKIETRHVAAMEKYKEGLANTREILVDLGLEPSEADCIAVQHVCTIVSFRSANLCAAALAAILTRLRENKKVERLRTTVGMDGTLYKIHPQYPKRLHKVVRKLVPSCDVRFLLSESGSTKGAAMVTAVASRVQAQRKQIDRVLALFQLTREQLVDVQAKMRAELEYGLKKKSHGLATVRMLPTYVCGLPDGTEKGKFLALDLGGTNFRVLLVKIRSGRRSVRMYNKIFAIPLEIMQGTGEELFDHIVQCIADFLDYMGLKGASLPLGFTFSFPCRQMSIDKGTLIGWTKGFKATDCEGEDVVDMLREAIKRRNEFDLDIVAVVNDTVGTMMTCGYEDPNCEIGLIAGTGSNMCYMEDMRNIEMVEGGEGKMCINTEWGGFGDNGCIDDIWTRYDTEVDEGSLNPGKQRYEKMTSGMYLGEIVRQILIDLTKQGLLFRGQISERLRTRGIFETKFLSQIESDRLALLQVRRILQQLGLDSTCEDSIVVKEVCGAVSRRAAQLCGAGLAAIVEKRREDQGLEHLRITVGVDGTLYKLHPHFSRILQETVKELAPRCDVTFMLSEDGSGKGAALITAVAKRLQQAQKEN

[4] = target: Paired box protein Pax-8 (Homo sapiens, UniProt Q06710); experiment: PAX8 transcriptional activity inhibition in RMG-I – RMG-I cells, luciferase, cherry-pick, dose response (AID 687027); type: functional, cell-based;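 further: luciferase reporter driven by Pax8 target thyroperoxidase promoter measured by SteadyGlo luminescence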
[5] = general cell-killing toxicity readout – plate reader, dry powder samples, cytotoxicity control for PAX8 inhibitor project, dose response (AID 743021); type: functional, cell-based
[6] = target: Mitochondrial peptide methionine sulfoxide reductase (Bos taurus, UniProt P54149); experiment: Absorbance-based biochemical high throughput dose response assay for activators of Methionine sulfoxide reductase A (MsrA).; type: functional
[7] = target: T2, Tyrosyl-DNA phosphodiesterase 2 (Homo sapiens, UniProt O95551); experiment: potency against TDP2 phosphodiesterase activity – biochemical, epi absorbance, IC50, dose response (AID 743297)
T2 sequence (O95551 whole entry): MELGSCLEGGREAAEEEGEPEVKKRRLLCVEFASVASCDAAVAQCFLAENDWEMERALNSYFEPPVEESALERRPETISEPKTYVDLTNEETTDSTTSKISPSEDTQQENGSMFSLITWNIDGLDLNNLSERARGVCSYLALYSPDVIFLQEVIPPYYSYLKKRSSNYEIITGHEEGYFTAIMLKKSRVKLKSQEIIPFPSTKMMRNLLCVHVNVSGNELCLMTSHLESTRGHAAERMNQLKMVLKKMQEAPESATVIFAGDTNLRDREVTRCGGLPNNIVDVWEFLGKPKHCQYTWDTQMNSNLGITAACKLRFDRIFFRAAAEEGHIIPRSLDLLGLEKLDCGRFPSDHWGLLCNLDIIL

[8] = target: Phospholipase A2 (Homo sapiens, UniProt P04054); type: functional;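 further: confirmatory dose-response counterscreen on phospholipase A2, testing hits that came from an ultra-high-throughput screen for ATG4B inhibitors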
[9] = target: T3, Cysteine protease ATG4B (Homo sapiens, UniProt Q9Y4P1); type: functional;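 further: Fluorescence-based dose-response confirmation assay measuring inhibition of ATG4B activity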
T3 sequence (Q9Y4P1 whole entry): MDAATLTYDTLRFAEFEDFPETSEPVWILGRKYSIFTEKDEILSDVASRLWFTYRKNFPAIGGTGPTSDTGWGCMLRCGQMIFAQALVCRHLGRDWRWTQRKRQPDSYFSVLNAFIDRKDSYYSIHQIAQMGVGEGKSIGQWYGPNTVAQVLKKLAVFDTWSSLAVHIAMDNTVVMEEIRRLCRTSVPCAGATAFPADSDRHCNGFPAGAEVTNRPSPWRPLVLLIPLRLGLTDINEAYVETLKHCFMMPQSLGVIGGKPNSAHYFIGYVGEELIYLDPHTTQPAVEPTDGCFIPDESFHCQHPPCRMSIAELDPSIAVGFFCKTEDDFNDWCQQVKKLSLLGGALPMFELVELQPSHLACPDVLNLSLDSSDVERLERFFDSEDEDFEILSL

[10] = target: Genome polyprotein (dengue virus type 2, UniProt P29990); experiment: flavivirus cap methylation enzyme inhibition – biochemical, confirmation dose response, primary screen (AID 588689); type: functional
[11] = target: Ras and Rab interactor 1/Tyrosine-protein kinase ABL1 (Homo sapiens, UniProt P00519+Q13671); type: functional;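 further: biochemical TR-FRET dose-response test measuring inhibition of binding between Rin1 and Abl proteins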
[12] = viability loss in THP-1 monocytes – THP-1 cells, cytotoxicity control for Vif-APOBEC3G degradation inhibitor project, dose response (AID 1117359); type: functional; settings: THP-1
[13] = target: T4, Histone-lysine N-methyltransferase NSD2 (Homo sapiens, UniProt O96028); type: biochemical
T4 sequence (O96028 whole entry): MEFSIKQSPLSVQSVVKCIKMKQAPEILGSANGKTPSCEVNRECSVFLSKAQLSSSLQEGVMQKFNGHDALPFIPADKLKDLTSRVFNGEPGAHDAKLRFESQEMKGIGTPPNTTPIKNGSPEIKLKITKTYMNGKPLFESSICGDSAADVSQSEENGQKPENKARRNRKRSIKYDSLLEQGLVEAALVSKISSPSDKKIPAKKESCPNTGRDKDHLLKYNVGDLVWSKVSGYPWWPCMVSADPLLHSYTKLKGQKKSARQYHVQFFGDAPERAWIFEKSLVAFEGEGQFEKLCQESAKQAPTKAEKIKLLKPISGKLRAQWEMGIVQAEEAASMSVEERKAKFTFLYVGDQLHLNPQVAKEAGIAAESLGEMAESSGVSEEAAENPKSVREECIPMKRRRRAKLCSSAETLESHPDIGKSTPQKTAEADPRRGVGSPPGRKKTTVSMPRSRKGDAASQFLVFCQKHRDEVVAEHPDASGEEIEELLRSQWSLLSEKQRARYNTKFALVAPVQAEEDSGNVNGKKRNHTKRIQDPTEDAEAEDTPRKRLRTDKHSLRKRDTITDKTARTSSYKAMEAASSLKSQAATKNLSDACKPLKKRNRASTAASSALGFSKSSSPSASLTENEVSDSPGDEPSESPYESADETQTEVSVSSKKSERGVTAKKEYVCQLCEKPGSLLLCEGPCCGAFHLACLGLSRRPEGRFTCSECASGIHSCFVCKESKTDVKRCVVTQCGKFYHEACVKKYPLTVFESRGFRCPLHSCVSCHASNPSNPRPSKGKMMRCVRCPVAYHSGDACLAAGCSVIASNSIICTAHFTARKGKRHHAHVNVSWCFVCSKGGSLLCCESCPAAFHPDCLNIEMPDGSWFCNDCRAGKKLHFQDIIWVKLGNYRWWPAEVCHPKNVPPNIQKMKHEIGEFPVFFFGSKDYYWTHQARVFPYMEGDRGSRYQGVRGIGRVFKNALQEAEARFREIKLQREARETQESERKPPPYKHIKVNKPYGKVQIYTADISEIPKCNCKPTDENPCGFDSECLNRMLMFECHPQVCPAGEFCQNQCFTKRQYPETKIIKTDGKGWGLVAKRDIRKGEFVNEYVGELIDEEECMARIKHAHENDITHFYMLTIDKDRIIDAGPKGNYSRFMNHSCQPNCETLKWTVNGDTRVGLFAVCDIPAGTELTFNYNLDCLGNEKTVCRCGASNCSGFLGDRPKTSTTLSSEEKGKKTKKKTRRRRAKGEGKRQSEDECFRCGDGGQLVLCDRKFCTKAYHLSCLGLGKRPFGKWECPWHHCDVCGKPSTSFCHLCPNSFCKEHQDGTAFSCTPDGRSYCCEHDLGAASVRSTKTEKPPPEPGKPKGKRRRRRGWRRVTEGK

Paired box protein Pax-8, sequence (Q06710 whole entry): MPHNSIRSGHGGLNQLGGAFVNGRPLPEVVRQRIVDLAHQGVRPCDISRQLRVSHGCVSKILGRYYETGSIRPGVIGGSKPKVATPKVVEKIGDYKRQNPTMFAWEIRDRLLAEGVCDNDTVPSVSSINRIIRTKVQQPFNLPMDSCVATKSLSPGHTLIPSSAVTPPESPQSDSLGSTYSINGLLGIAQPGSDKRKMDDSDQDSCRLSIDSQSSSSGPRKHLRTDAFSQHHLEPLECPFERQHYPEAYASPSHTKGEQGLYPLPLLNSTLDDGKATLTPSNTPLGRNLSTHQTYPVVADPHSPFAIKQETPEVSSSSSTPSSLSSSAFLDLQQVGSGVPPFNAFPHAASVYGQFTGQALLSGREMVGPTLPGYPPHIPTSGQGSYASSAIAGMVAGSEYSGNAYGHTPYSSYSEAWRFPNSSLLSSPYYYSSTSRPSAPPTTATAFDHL
Ras and Rab interactor 1/Tyrosine-protein kinase ABL1, sequence (P00519 whole entry): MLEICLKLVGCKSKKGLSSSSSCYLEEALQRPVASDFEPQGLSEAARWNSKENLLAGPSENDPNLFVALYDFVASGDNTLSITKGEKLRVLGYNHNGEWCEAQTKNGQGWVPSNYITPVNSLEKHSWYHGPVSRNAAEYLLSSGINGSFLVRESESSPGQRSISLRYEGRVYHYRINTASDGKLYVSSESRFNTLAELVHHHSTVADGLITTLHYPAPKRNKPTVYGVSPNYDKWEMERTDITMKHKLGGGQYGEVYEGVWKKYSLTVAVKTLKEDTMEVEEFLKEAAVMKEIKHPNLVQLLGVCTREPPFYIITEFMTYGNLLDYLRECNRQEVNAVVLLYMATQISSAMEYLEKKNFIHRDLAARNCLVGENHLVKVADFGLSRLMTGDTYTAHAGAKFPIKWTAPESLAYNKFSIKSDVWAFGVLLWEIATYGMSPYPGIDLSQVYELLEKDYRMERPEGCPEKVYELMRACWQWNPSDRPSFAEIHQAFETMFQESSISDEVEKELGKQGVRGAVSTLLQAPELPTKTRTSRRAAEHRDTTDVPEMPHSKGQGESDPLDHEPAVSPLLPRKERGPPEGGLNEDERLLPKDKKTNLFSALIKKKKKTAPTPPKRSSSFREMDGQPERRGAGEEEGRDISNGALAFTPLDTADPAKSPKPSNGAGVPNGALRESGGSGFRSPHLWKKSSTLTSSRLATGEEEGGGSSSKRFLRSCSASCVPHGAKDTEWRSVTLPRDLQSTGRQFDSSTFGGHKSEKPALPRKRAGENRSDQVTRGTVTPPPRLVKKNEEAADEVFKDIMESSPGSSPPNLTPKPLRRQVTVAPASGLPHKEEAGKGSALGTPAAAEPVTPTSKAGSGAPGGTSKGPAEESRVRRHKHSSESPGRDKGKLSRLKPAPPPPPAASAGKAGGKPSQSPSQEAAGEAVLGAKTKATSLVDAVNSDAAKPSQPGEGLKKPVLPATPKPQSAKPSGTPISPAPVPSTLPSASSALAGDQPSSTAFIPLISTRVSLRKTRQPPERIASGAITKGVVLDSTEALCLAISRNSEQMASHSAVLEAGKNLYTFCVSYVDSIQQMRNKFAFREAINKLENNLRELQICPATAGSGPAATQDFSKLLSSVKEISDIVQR
Ras and Rab interactor 1/Tyrosine-protein kinase ABL1, sequence (Q13671 whole entry): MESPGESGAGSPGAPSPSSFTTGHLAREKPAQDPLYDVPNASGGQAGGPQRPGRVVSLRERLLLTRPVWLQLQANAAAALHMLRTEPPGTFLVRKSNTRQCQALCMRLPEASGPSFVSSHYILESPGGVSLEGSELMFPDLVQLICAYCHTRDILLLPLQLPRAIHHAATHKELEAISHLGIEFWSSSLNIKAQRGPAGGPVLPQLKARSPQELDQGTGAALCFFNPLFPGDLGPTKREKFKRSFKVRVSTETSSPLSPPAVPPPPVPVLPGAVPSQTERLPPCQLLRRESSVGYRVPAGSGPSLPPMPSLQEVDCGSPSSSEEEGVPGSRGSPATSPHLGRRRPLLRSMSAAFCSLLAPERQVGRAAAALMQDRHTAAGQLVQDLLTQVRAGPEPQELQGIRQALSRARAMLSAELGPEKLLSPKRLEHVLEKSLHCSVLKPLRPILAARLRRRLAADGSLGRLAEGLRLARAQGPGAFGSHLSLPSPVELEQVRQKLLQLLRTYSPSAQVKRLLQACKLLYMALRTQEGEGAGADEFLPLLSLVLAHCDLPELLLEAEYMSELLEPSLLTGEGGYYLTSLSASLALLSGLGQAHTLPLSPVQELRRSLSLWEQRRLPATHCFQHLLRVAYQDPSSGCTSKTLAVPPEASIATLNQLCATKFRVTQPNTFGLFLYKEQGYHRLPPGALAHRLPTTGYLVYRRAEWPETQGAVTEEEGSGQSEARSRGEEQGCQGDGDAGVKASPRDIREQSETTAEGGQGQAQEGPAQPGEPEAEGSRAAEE
Genome polyprotein, sequence (P29990 2492-3391 limits assumed): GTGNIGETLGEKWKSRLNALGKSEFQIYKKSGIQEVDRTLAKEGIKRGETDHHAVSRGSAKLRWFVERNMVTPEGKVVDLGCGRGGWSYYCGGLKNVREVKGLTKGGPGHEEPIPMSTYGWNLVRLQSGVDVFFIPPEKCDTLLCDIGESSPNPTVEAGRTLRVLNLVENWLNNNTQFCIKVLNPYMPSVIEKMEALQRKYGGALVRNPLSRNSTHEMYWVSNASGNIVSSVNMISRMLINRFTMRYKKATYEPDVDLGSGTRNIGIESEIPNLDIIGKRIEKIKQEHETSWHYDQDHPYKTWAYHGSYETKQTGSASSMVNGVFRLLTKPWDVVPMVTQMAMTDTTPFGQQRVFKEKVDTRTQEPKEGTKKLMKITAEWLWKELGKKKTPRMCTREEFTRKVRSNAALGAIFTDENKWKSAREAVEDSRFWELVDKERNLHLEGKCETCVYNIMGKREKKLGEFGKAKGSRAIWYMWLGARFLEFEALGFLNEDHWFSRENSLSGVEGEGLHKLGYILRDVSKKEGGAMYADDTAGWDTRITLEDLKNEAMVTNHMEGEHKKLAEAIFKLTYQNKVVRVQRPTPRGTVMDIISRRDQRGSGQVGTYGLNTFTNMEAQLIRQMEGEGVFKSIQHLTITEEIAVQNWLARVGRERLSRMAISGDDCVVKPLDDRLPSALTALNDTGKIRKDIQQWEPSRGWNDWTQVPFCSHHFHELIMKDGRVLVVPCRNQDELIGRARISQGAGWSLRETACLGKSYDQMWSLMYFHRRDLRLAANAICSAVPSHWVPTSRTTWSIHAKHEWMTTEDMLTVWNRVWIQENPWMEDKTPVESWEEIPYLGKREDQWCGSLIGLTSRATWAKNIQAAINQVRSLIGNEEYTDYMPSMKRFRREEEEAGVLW
Mitochondrial peptide methionine sulfoxide reductase, sequence (P54149 whole entry): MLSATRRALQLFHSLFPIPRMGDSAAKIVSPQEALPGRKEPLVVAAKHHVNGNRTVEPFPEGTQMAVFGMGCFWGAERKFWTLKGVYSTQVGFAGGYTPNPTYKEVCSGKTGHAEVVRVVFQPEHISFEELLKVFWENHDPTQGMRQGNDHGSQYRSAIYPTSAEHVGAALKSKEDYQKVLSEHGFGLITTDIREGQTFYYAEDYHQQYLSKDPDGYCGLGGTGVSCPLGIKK
Phospholipase A2, sequence (P04054 whole entry): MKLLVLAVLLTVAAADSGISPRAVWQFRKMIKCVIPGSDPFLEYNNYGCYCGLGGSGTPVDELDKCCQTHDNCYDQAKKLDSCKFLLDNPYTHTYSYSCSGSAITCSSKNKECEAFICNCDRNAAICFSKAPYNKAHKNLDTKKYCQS

## COC1=CC(=O)c2c(ccc3ncnc(N)c23)C1=O
[1]
  CC50: 4.63 µM (active)
[2]
  AC50: 2.53 µM (active)
[3]
  IC50: 1.56 µM (active)
[4]
  AC50: 1.06 µM (active)
[5]
  AC50: 9.49 µM (active)
[6]
  EC50: 14.1 µM (inactive)
[7]
  IC50: 842 nM (active)
[8]
  IC50: > 80 µM (inactive)
[9]
  IC50: 6.81 µM (active)
[10]
  IC50: 62.4 µM (active)
[11]
  IC50: > 73.4 µM (inactive)
[12]
  CC50: 10.4 µM (active)
[13]
  AC50: 1.28 µM (active)
